We go through three compounds from PMC8334341 (Acta Pharmacologica Sinica, 2021).

A word on the Kd: it is a measure of binding affinity in units of concentration. The IC50 is the concentration that gives 50% inhibition.

The target of assay [1] is RBD domain of S protein of SARS-CoV-2 (Severe acute respiratory syndrome coronavirus 2, UniProt P0DTC2). The assay can be described thus: biochemical. In kind it is binding.
Assay [2] deals with binding interactions between RBD and ACE2 (Homo sapiens, UniProt Q9BYF1). Also noted: species or system SARS-CoV-2.
The test system of assay [3] is ACE2. Particulars: read-out: IC50 (ACE2 inhibitor); cited from earlier work.

binding interactions between RBD and ACE2, sequence (Q9BYF1 whole entry, looked up): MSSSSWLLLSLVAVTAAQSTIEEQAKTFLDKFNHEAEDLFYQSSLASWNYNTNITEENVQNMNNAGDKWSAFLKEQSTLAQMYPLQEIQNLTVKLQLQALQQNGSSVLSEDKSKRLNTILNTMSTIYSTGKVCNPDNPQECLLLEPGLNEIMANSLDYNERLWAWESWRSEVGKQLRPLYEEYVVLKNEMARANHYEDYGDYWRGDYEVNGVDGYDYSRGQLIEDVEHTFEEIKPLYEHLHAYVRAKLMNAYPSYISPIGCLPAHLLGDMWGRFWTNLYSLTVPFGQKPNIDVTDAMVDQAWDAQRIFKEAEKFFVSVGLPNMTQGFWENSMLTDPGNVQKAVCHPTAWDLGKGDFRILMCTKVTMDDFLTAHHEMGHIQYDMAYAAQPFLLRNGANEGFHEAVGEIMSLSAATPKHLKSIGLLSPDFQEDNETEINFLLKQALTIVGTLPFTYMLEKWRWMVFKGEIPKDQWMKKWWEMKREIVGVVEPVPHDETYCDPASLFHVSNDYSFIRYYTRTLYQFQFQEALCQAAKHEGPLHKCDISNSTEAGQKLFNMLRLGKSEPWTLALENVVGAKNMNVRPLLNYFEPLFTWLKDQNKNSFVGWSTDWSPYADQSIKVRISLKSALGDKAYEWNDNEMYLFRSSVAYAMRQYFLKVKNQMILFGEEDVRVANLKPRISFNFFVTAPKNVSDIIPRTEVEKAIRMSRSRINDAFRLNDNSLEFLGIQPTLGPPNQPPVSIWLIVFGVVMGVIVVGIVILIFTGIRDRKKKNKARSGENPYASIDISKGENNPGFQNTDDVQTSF

`C=C[C@@H]1C2=CCOC(=O)C2=CO[C@H]1O[C@@H]1O[C@H](CO)[C@@H](O)[C@H](O)[C@H]1O` [GTCP, Gentiopicrin]: binding in assay [1] was characterised by a dissociation constant (Kd) of 29.6 µM.
The compound `Nc1ncnc2c1ncn2[C@@H]1O[C@H](CO)C[C@H]1O` [CDCP, Cordycepin] showed a Kd in assay [1] of 20.5 µM.
Turning to `CC(C)C[C@H](N[C@@H](Cc1cncn1Cc1cc(Cl)cc(Cl)c1)C(=O)O)C(=O)O` [MLN-4760], in assay [2], the “effect on the binding affinity between RBD and ACE2” value was “negligible effect”. Moreover, in assay [3], the IC50 was 0.00044 µM.
